Measurements as given in US7601716B2, “Pyridopyrazines and derivatives thereof as ALK and c-Met inhibitors” (Cephalon, Inc., priority 2006, dated 2009).
Where a name gives a salt, the structure may show the parent alone.

How the values were obtained:
[1] = molecular target: T1, c-Met (cytoplasmic domain) (Homo sapiens, UniProt P08581); experiment: c-Met Kinase Assay (ELISA/TRF, PLC-γ substrate); format: biochemical; conditions: 3 μM ATP (Km level); read-out: c-Met Kinase Inhibition (IC50)
T1 construct: Reactions were initiated with 30 ng/mL c-Met (cytoplasmic domain, Invitrogen Corporation #PV3143); purchased Invitrogen Corporation PV3143
Summary of the method: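 Readout is TRF of europium anti-phosphotyrosine (PT66) bound to GST–PLC-γ substrate coated at 10 μg/mL, after a 15 min, 37 °C reaction started with 30 ng/mL c-Met cytoplasmic domain. Percent inhibition plotted against log compound concentration and fitted (variable slope) for IC50.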

[2] = molecular target: baculovirus-expressed ALK (Homo sapiens, UniProt Q9UM73); experiment: ALK Kinase Assay (ELISA/TRF, PLC-γ substrate); format: biochemical; conditions: read-out: ALK Kinase Inhibition (IC50); further: 1 µM ATP (Km level)
Summary of the method: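 IC50 values fitted by nonlinear sigmoidal regression (variable slope) of percent inhibition against log compound concentration. Read-out was TRF of Eu-N1 anti-phosphotyrosine antibody bound to phosphorylated, plate-coated GST-PLC-γ (10 µg/mL). Kinase reaction used ALK at 30 ng/ml for 15 min at 37 °C.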

T1 sequence (P08581 956-1390 limits assumed): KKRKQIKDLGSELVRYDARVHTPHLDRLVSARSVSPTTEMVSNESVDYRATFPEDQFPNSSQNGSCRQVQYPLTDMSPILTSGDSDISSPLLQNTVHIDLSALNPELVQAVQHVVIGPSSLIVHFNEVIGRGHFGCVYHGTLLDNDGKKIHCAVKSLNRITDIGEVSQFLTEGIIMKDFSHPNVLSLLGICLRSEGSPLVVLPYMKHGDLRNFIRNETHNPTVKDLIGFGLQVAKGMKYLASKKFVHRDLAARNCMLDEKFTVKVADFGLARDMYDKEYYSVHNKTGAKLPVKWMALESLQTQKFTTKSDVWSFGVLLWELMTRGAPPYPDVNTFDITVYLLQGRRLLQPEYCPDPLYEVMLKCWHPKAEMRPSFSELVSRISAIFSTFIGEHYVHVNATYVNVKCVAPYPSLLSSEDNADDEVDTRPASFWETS
Sequence of baculovirus-expressed ALK (Q9UM73 19-1620): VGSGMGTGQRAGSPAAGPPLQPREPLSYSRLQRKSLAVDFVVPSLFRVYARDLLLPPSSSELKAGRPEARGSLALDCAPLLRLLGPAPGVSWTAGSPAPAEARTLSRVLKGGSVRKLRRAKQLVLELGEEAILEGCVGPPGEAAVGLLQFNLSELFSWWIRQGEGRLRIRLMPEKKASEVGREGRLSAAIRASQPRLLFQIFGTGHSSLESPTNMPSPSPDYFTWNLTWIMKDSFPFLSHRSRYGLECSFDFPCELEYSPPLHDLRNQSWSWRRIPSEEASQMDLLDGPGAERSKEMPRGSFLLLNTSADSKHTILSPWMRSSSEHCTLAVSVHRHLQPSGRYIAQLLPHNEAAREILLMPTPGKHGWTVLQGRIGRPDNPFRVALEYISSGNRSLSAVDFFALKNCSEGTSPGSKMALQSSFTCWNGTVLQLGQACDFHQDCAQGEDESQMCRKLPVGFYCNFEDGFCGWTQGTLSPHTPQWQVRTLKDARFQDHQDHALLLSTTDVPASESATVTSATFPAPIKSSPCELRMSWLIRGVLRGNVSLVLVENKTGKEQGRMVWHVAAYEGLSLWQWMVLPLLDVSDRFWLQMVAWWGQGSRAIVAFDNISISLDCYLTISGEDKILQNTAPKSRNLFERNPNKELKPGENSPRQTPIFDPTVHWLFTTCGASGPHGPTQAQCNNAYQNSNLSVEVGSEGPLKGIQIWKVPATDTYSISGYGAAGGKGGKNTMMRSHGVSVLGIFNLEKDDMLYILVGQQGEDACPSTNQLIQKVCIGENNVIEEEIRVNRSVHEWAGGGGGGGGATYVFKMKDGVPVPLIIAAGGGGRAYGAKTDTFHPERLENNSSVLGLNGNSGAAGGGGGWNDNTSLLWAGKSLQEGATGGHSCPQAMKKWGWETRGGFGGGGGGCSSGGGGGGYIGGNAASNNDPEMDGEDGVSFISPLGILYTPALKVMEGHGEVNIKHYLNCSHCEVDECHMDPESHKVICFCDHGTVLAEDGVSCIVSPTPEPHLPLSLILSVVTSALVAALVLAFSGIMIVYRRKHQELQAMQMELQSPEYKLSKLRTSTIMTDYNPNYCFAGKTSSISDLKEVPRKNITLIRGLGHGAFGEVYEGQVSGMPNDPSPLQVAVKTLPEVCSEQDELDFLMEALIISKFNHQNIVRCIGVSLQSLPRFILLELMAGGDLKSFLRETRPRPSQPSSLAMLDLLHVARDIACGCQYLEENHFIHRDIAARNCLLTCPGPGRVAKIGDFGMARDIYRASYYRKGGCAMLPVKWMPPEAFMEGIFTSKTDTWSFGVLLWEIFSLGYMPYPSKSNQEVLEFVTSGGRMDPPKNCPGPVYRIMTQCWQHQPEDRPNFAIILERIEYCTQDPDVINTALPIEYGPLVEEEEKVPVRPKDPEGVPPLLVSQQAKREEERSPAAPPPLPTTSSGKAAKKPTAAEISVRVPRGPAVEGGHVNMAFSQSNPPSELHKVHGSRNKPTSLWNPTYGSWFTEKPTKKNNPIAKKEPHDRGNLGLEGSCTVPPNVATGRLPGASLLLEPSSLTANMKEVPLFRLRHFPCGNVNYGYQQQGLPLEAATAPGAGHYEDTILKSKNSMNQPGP

| SMILES | IC50 [1] | IC50 [2] | melting point |
| --- | --- | --- | --- |
| CC(=O)Nc1ccc(-c2cnc3c(c2)N(Cc2cc(Cl)ccc2C(F)(F)F)CCN3)cc1 [Example 304, N-(4-{1-[5-Chloro-2-(trifluoromethyl)benzyl]-1,2,3,4-tetrahydropyrido[2,3-b]pyrazin-7-yl}phenyl)acetamide] | > 100 µM | 1 to 10 µM | 244 °C |
| O=C1CN(Cc2c(F)ccc(F)c2Cl)c2cc(Br)cnc2N1 [Example 436, 7-Bromo-1-(2-chloro-3,6-difluorobenzyl)-1,4-dihydro-2H-pyrido[2,3-b]pyrazin-3-one] | – | – | 214 to 216 °C (dec.) |
| CN(C)CCCCCCNC(=O)c1ccc(-c2cnc3c(c2)N(Cc2c(Cl)cccc2Cl)C(=O)CN3)cc1 (as salt: trifluoroacetic acid salt) [Example 143, 4-[1-(2,6-Dichlorobenzyl)-2-oxo-1,2,3,4-tetrahydropyrido[2,3-b]pyrazin-7-yl]-N-(6-dimethylaminohexyl)benzamide, trifluoroacetic acid salt] | – | – | 150 °C |
| O=C(NCCN1CCCC1)c1ccc(-c2cnc3c(c2)N(Cc2ccccc2)C(=O)CN3)cc1 (as salt: trifluoroacetic acid salt) [Example 12, 4-(1-Benzyl-2-oxo-1,2,3,4-tetrahydropyrido[2,3-b]pyrazin-7-yl)-N-(2-pyrrolidin-1-yl-ethyl)benzamide, trifluoroacetic acid salt] | – | – | 107 °C |
| O=C(c1cnc2c(c1)N(Cc1cc(Cl)ccc1Cl)CCN2)N1CCC(Cc2ccccc2)CC1 [Example 215, (4-Benzylpiperidin-1-yl)-[1-(2,5-dichlorobenzyl)-1,2,3,4-tetrahydropyrido[2,3-b]pyrazin-7-yl]methanone] | 10 to 100 µM | 10 to 100 µM | – |
| Fc1ccc(F)c(CN2CCNc3ncc(-c4ccnc(N5CCCC5)c4)cc32)c1Cl [Example 183, 1-(2-Chloro-3,6-difluorobenzyl)-7-(2-pyrrolidin-1-yl-pyridin-4-yl)-1,2,3,4-tetrahydropyrido[2,3-b]pyrazine] | 1 to 10 µM | 0.1 to 1 µM | – |
| CN(C)CCCCNC(=O)c1ccc(-c2cnc3c(c2)N(Cc2c(Cl)cccc2Cl)C(=O)CN3)cc1 (as salt: trifluoroacetic acid salt) [Example 144, 4-[1-(2,6-Dichlorobenzyl)-2-oxo-1,2,3,4-tetrahydropyrido[2,3-b]pyrazin-7-yl]-N-(4-dimethylaminobutyl)benzamide, trifluoroacetic acid salt] | – | – | 147 °C |
| O=C1CNc2ncc(-c3cccc(C(=O)N4CCC[C@H]4CN4CCCC4)c3)cc2N1Cc1ccccc1 [Example 18, S-1-Benzyl-7-[3-(2-[(pyrrolidin-1-yl)methyl]pyrrolidine-1-carbonyl)phenyl]-3,4-dihydro-1H-pyrido[2,3-b]pyrazin-2-one, trifluoroacetic acid salt] | 10 to 100 µM | 1 to 10 µM | – |
| COc1ccc(N2CCN(C(=O)c3cnc4c(c3)N(Cc3cc(Cl)ccc3Cl)CCN4)CC2)cc1 [Example 247, [1-(2,5-Dichlorobenzyl)-1,2,3,4-tetrahydropyrido[2,3-b]pyrazin-7-yl]-[4-(4-methoxyphenyl)piperazin-1-yl]methanone] | > 100 µM | 1 to 10 µM | – |
| Fc1ccc(F)c(CN2CCNc3ncc(-c4ccnc(N5CCOCC5)c4Cl)cc32)c1Cl [Example 101, 1-(2-Chloro-3,6-difluorobenzyl)-7-(3-chloro-2-morpholin-4-yl-pyridin-4-yl)-1,2,3,4-tetrahydropyrido[2,3-b]pyrazine] | 1 to 10 µM | 0.1 to 1 µM | – |
| O=C(NCc1cccnc1)c1cnc2c(c1)N(Cc1cc(Cl)ccc1Cl)CCN2 [Example 235, 1-(2,5-Dichlorobenzyl)-1,2,3,4-tetrahydropyrido[2,3-b]pyrazine-7-carboxylic acid (pyridin-3-ylmethyl)amide] | 10 to 100 µM | 1 to 10 µM | – |
| CC(c1cc(F)c(F)cc1F)N1CCNc2ncc(-c3ccc(C(=O)N4CCN(C)CC4)cc3)cc21 (centres unmarked) [Example 149, (4-Methylpiperazin-1-yl)-(4-{1-[1-(2,4,5-trifluorophenyl)ethyl]-1,2,3,4-tetrahydropyrido[2,3-b]pyrazin-7-yl}phenyl)methanone] | > 100 µM | > 100 µM | – |
| O=C(NCc1cc(C(F)(F)F)cc(C(F)(F)F)c1)c1cnc2c(c1)N(Cc1cc(Cl)ccc1Cl)CCN2 [Example 239, 1-(2,5-Dichlorobenzyl)-1,2,3,4-tetrahydropyrido[2,3-b]pyrazine-7-carboxylic acid 3,5-bis-(trifluoromethyl)benzylamide] | > 100 µM | 1 to 10 µM | – |
| CN1CCN(c2cc(-c3cnc4c(c3)N(Cc3ccc(C(F)(F)F)o3)CCN4)ccn2)CC1 [Example 293, 7-[2-(4-Methylpiperazin-1-yl)pyridin-4-yl]-1-[5-(trifluoromethyl)furan-2-ylmethyl]-1,2,3,4-tetrahydropyrido[2,3-b]pyrazine] | 1 to 10 µM | 1 to 10 µM | – |
| O=C(c1cnc2c(c1)N(Cc1cc(Cl)ccc1Cl)CCN2)N1CCN(CCc2ccccn2)CC1 [Example 229, [1-(2,5-Dichlorobenzyl)-1,2,3,4-tetrahydropyrido[2,3-b]pyrazin-7-yl]-[4-(2-pyridin-2-yl-ethyl)piperazin-1-yl]methanone] | 1 to 10 µM | 1 to 10 µM | – |
| CN(C)CCn1cc(-c2cnc3c(c2)N(Cc2c(F)ccc(F)c2Cl)CCN3)cn1 [Example 197, (2-{4-[1-(2-Chloro-3,6-difluorobenzyl)-1,2,3,4-tetrahydropyrido[2,3-b]pyrazin-7-yl]-pyrazol-1-yl}ethyl)dimethylamine] | 1 to 10 µM | 0.1 to 1 µM | – |
| CN1CCN(Cc2cc(Cl)ccc2Cl)c2cc(I)cnc21 [Example 187, 1-(2,5-Dichlorobenzyl)-7-iodo-4-methyl-1,2,3,4-tetrahydropyrido[2,3-b]pyrazine] | > 100 µM | > 100 µM | – |
| CN1CCN(C(=O)c2ccc(-c3cnc4c(c3)N(Cc3c(F)ccc(F)c3Cl)C(=O)CN4)cc2)CC1 [Example 7, 1-(2-Chloro-3,6-difluorobenzyl)-7-[4-(4-methylpiperazine-1-carbonyl)phenyl]-3,4-dihydro-1H-pyrido[2,3-b]pyrazin-2-one] | 10 to 100 µM | 1 to 10 µM | – |
| O=C(c1cnc2c(c1)N(Cc1cc(Cl)ccc1Cl)CCN2)N1CCN(Cc2ccc(Cl)cc2)CC1 [Example 255, [4-(4-Chlorobenzyl)piperazin-1-yl]-[1-(2,5-dichlorobenzyl)-1,2,3,4-tetrahydropyrido[2,3-b]pyrazin-7-yl]methanone] | > 100 µM | 1 to 10 µM | – |
| O=C1CNc2ncc(-c3ccc(NS(=O)(=O)CCN4CCCC4)cc3)cc2N1Cc1ccccc1 [Example 45, 2-Pyrrolidin-1-yl-ethanesulfonic acid[4-(1-benzyl-2-oxo-1,2,3,4-tetrahydropyrido[2,3-b]pyrazin-7-yl)phenyl]amide, trifluoroacetic acid salt] | > 100 µM | 1 to 10 µM | – |
| O=C(c1cnc2c(c1)N(Cc1cc(Cl)ccc1Cl)CCN2)N1CCN(c2ncccn2)CC1 [Example 207, [1-(2,5-Dichlorobenzyl)-1,2,3,4-tetrahydropyrido[2,3-b]pyrazin-7-yl]-(4-pyrimidin-2-yl-piperazin-1-yl)-methanone] | > 100 µM | 1 to 10 µM | – |
| O=C1CNc2ncc(-c3cccnc3)cc2N1Cc1c(F)ccc(F)c1Cl [Example 4, 1-(2-Chloro-3,6-difluorobenzyl)-7-pyridin-3-yl-3,4-dihydro-1H-pyrido[2,3-b]pyrazin-2-one, trifluoroacetic acid salt] | 10 to 100 µM | 1 to 10 µM | – |
| O=C(NCCCN1CCOCC1)c1ccc(-c2cnc3c(c2)N(Cc2ccccc2)C(=O)CN3)cc1 [Example 14, 4-(1-Benzyl-2-oxo-1,2,3,4-tetrahydropyrido[2,3-b]pyrazin-7-yl)-N-(3-morpholin-4-yl-propyl)benzamide, trifluoroacetic acid salt] | > 100 µM | 10 to 100 µM | – |
| O=C(NCCc1ccccn1)c1cnc2c(c1)N(Cc1cc(Cl)ccc1Cl)CCN2 [Example 223, 1-(2,5-Dichlorobenzyl)-1,2,3,4-tetrahydropyrido[2,3-b]pyrazine-7-carboxylic acid (2-pyridin-2-yl-ethyl)amide] | > 100 µM | 1 to 10 µM | – |
| CN1CCN(C(=O)c2ccc(-c3cnc4c(c3)N(Cc3ccccc3)C(=O)CN4)cc2)CC1 [Example 25, 1-Benzyl-7-[4-(4-methylpiperazine-1-carbonyl)phenyl]-3,4-dihydro-1H-pyrido[2,3-b]pyrazin-2-one, trifluoroacetic acid salt] | 10 to 100 µM | 1 to 10 µM | – |
| O=C(c1cnc2c(c1)N(Cc1cc(Cl)ccc1Cl)CCN2)N1CCN(c2nccc3occc23)CC1 [Example 220, [1-(2,5-Dichlorobenzyl)-1,2,3,4-tetrahydropyrido[2,3-b]pyrazin-7-yl]-(4-furo[3,2-c]pyridin-4-yl-piperazin-1-yl)methanone] | 1 to 10 µM | 1 to 10 µM | – |
| CN1CCN(C(=O)c2ccc(-c3cnc4c(c3)N(C(=O)c3ccccc3)CCN4)cc2)CC1 [Example 54, {7-[4-(4-Methylpiperazine-1-carbonyl)phenyl]-3,4-dihydro-2H-pyrido[2,3-b]pyrazin-1-yl}phenylmethanone] | 10 to 100 µM | > 100 µM | – |
| O=C(c1ccc(-c2cnc3ncc(=O)n(Cc4ccccc4)c3c2)cc1)N1CCC(N2CCCC2)CC1 [Example 17, 1-Benzyl-7-[4-(4-(pyrrolidin-1-yl)piperidine-1-carbonyl)phenyl]-1H-pyrido[2,3-b]pyrazin-2-one, trifluoroacetic acid salt] | 10 to 100 µM | 10 to 100 µM | – |
